pIC50: −log10 of the molar value.
What follows are compounds tested against Pol theta (1-899) (Homo sapiens (Human), UniProt O75417) (assay: Pol theta ATPase activity, NADH oxidation-coupled enzymatic assay). Conditions: Pol theta (1-899) 10 nM, ATP, dT50 ssDNA, absorbance 340 nm, 10-point dilution series; read-out: ATPase NADH coupling:Standard Screening:hPolQ IC50.
Format: biochemical
In short: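 Pol theta (1-899), 10 nM, preincubated 15 min at RT with 10-point compound series in Tris pH 7.80/KCl/MgCl2 buffer, then given 100 μM ATP plus 300 nM dT50 ssDNA with PK/LDH-coupled NADH oxidation. A340 followed for 30 min; rate slopes fitted with a four-parameter model for IC50.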

Pol theta (1-899), sequence (O75417 1-899): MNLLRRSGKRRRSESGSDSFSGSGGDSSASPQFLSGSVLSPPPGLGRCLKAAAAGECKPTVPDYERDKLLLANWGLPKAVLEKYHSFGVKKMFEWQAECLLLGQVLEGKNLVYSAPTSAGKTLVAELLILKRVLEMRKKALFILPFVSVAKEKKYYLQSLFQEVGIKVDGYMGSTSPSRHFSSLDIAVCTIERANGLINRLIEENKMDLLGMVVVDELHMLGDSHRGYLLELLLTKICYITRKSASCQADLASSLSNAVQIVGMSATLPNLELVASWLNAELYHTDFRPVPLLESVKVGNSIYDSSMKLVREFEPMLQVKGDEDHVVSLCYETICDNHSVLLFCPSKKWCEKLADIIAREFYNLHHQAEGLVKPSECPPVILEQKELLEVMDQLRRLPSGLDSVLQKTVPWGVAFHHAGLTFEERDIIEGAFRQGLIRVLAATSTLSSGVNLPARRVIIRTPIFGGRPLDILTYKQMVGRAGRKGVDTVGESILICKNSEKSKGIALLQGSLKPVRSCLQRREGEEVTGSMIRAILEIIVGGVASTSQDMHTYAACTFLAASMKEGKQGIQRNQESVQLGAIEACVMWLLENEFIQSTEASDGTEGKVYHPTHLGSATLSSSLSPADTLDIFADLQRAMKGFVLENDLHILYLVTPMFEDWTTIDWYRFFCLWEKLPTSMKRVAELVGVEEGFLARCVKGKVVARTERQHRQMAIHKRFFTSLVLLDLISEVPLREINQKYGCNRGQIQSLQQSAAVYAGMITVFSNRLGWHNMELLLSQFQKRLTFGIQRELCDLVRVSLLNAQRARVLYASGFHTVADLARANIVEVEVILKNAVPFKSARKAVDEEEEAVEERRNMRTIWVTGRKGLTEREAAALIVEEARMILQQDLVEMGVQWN

SMILES | pIC50
COc1ccccc1-c1ccncc1C(=O)Nc1nnc(OCc2ccc(Br)cn2)s1 [Example 97, N-(5-((5-bromopyridin-2-yl)methoxy)-1,3,4-thiadiazol-2-yl)-4-(2-methoxy-phenyl)nicotinamide] | ≥ 6.70
O=C(Nc1nnc(OCc2ccc(Cl)cc2)s1)c1cnc(-c2ncc[nH]2)cc1N1CCOCC1 [Example 98, N-(5-((4-chlorobenzyl)oxy)-1,3,4-thiadiazol-2-yl)-6-(1H-imidazol-2-yl)-4-morpholinonicotinamide] | 6.00 to 6.30
COc1ccccc1-c1cnccc1C(=O)Nc1nnc(OCc2ccc(Cl)cn2)s1 [Example 99, N-[5-[(5-chloropyridin-2-yl)methoxy]-1,3,4-thiadiazol-2-yl]-3-(2-methoxyphenyl)pyridine-4-carboxamide] | ≥ 6.70
O=C(Nc1nnc(OCc2ccc(Cl)cc2)s1)c1ccncc1-c1ccccc1OC(F)F [Example 100, N-(5-((4-chlorobenzyl)oxy)-1,3,4-thiadiazol-2-yl)-3-(2-(difluoromethoxy)phenyl)isonicotinamide] | ≥ 6.70
COc1ccccc1-c1cnccc1C(=O)Nc1nnc(OCc2ccc(C3CC3)nc2)s1 [Example 101, N-[5-[(6-cyclopropylpyridin-3-yl)methoxy]-1,3,4-thiadiazol-2-yl]-3-(2-methoxyphenyl)pyridine-4-carboxamide] | ≥ 6.70
COc1ccccc1-c1cc(CO)ncc1C(=O)Nc1nnc(OCc2ccc(Cl)cc2)s1 [Example 102, N-(5-((4-chlorobenzyl)oxy)-1,3,4-thiadiazol-2-yl)-6-(hydroxymethyl)-4-(2-methoxyphenyl)nicotinamide] | ≥ 6.70
O=C(Nc1nnc(OCc2ccc(Cl)cc2)s1)c1ccncc1-c1cccc2nsnc12 [Example 103, 3-(benzo[c][1,2,5]thiadiazol-4-yl)-N-(5-((4-chlorobenzyl)oxy)-1,3,4-thiadiazol-2-yl)isonicotinamide] | ≥ 6.70
O=C(Nc1nnc(OCc2ccc(Cl)cn2)s1)c1cnc(CO)cc1-c1ccccc1OC(F)F [Example 104, N-(5-((5-chloropyridin-2-yl)methoxy)-1,3,4-thiadiazol-2-yl)-4-(2-(difluoromethoxy)phenyl)-6-(hydroxymethyl)nicotinamide] | ≥ 6.70
COc1ccccc1-c1cc(CC#N)ncc1C(=O)Nc1nnc(OCc2ccc(Cl)cc2)s1 [Example 105, N-(5-((4-chlorobenzyl)oxy)-1,3,4-thiadiazol-2-yl)-6-(cyanomethyl)-4-(2-methoxyphenyl)nicotinamide] | ≥ 6.70
COc1ccccc1-c1cnncc1C(=O)Nc1nnc(OCc2ccc(Cl)cn2)s1 [Example 106, N-(5-((5-chloropyridin-2-yl)methoxy)-1,3,4-thiadiazol-2-yl)-5-(2-methoxyphenyl)pyridazine-4-carboxamide] | ≥ 6.70
COc1ccccc1-c1cnccc1C(=O)Nc1nnc(OCc2ccc(Cl)c3[nH]ncc23)s1 [Example 107, N-(5-((7-chloro-1H-indazol-4-yl)methoxy)-1,3,4-thiadiazol-2-yl)-3-(2-methoxyphenyl)isonicotinamide] | ≥ 6.70
N#Cc1ccc(OC(F)F)c(-c2cnccc2C(=O)Nc2nnc(OCc3ccc(Cl)cc3)s2)c1 [Example 108, N-(5-((4-chlorobenzyl)oxy)-1,3,4-thiadiazol-2-yl)-3-(5-cyano-2-(difluoromethoxy)phenyl)isonicotinamide] | ≥ 6.70
O=C(Nc1nnc(OCc2ccc(Cl)cc2)s1)c1ccncc1-c1c(F)cccc1OC(F)F [Example 109, N-(5-((4-chlorobenzyl)oxy)-1,3,4-thiadiazol-2-yl)-3-(2-(difluoromethoxy)-6-fluorophenyl)isonicotinamide] | ≥ 6.70
C[C@H]1COC[C@H](C)N1c1cnccc1C(=O)Nc1nnc(OCc2ccc(Cl)cc2)s1 [Example 110, N-(5-((4-chlorobenzyl)oxy)-1,3,4-thiadiazol-2-yl)-3-((3S,5S)-3,5-dimethylmorpholino)isonicotinamide] | ≥ 6.70
O=C(Nc1nnc(OCc2ccc(Cl)cc2)s1)c1ccncc1-c1cccc2ncoc12 [Example 111, 3-(benzo[d]oxazol-7-yl)-N-(5-((4-chlorobenzyl)oxy)-1,3,4-thiadiazol-2-yl)isonicotinamide] | ≥ 6.70
O=C(Nc1nnc(OCc2ccc(Cl)cc2)s1)c1cnncc1-c1ccccc1OC(F)F [Example 112, N-(5-((4-chlorobenzyl)oxy)-1,3,4-thiadiazol-2-yl)-5-(2-(difluoromethoxy)phenyl)pyridazine-4-carboxamide] | ≥ 6.70
COc1ccccc1-c1cc(C)ncc1C(=O)Nc1nnc(OCc2ccc(Cl)cn2)s1 [Example 113, N-(5-((5-chloropyridin-2-yl)methoxy)-1,3,4-thiadiazol-2-yl)-4-(2-methoxyphenyl)-6-methylnicotinamide] | ≥ 6.70
Cc1cc(-c2ccccc2OC(F)F)c(C(=O)Nc2nnc(OCc3ccc(Cl)cc3)s2)cn1 [Example 114, N-[5-[(4-chlorophenyl)methoxy]-1,3,4-thiadiazol-2-yl]-4-[2-(difluoromethoxy)phenyl]-6-methylpyridine-3-carboxamide] | ≥ 6.70
Cc1cc(-c2ccccc2OC(F)F)c(C(=O)Nc2nnc(OCc3ccc(Cl)cn3)s2)cn1 [Example 115, N-[5-[(5-chloropyridin-2-yl)methoxy]-1,3,4-thiadiazol-2-yl]-4-[2-(difluoromethoxy)phenyl]-6-methylpyridine-3-carboxamide] | ≥ 6.70
COc1ccc(C#N)cc1-c1cc(C)ncc1C(=O)Nc1nnc(OCc2ccc(Cl)cc2)s1 [Example 116, N-[5-[(4-chlorophenyl)methoxy]-1,3,4-thiadiazol-2-yl]-4-(5-cyano-2-methoxyphenyl)-6-methylpyridine-3-carboxamide] | ≥ 6.70
COc1ccc(C#N)cc1-c1cc(C)ncc1C(=O)Nc1nnc(OCc2ccc(Cl)cn2)s1 [Example 117, N-[5-[(5-chloropyridin-2-yl)methoxy]-1,3,4-thiadiazol-2-yl]-4-(5-cyano-2-methoxyphenyl)-6-methylpyridine-3-carboxamide] | ≥ 6.70

The next lines start with the values.

pIC50 | SMILES
6.30 to 6.70 | Cc1cn[nH]c1-c1cnccc1C(=O)Nc1nnc(OCc2ccc(Cl)cc2)s1 [Example 118, N-(5-((4-chlorobenzyl)oxy)-1,3,4-thiadiazol-2-yl)-3-(4-methyl-1H-pyrazol-5-yl)isonicotinamide]
≥ 6.70 | O=C(Nc1nnc(OCc2ccc(Cl)cc2)s1)c1ccncc1-c1cccc2[nH]ncc12 [Example 119, N-(5-((4-chlorobenzyl)oxy)-1,3,4-thiadiazol-2-yl)-3-(1H-indazol-4-yl)isonicotinamide]
≥ 6.70 | O=C1COc2c(cccc2-c2cnccc2C(=O)Nc2nnc(OCc3ccc(Cl)cc3)s2)N1 [Example 120, N-(5-((4-chlorobenzyl)oxy)-1,3,4-thiadiazol-2-yl)-3-(3-oxo-3,4-dihydro-2H-benzo[b][1,4]oxazin-8-yl)isonicotinamide]
≥ 6.70 | O=C(Nc1nnc(OCc2ccc(Cl)cc2)s1)c1ccncc1-c1cccc2c1OC(F)(F)O2 [Example 121, N-(5-((4-chlorobenzyl)oxy)-1,3,4-thiadiazol-2-yl)-3-(2,2-difluorobenzo[d][1,3]dioxol-4-yl)isonicotinamide]
≥ 6.70 | Cn1cc(-c2ccncc2C(=O)Nc2nnc(OCc3ccc(Cl)cc3)s2)ccc1=O [Example 122, N-(5-((4-chlorobenzyl)oxy)-1,3,4-thiadiazol-2-yl)-1-methyl-6-oxo-1,6-dihydro-[3,4′-bipyridine]-3′-carboxamide]
≥ 6.70 | COc1ccc(C#N)cc1-c1cnccc1C(=O)Nc1nnc(OCc2ccc(Cl)cc2)s1 [Example 123, N-(5-((4-chlorobenzyl)oxy)-1,3,4-thiadiazol-2-yl)-3-(5-cyano-2-methoxyphenyl)isonicotinamide]
≥ 6.70 | COc1cccc(F)c1-c1cnccc1C(=O)Nc1nnc(OCc2ccc(Cl)cc2)s1 [Example 124, N-(5-((4-chlorobenzyl)oxy)-1,3,4-thiadiazol-2-yl)-3-(2-fluoro-6-methoxyphenyl)isonicotinamide]
≥ 6.70 | COc1cccc(Cl)c1-c1cnccc1C(=O)Nc1nnc(OCc2ccc(Cl)cc2)s1 [Example 125, 3-(2-chloro-6-methoxyphenyl)-N-(5-((4-chlorobenzyl)oxy)-1,3,4-thiadiazol-2-yl)isonicotinamide]
≥ 6.70 | N#Cc1ccccc1-c1cnccc1C(=O)Nc1nnc(OCc2ccc(Cl)cc2)s1 [Example 126, N-(5-((4-chlorobenzyl)oxy)-1,3,4-thiadiazol-2-yl)-3-(2-cyanophenyl)isonicotinamide]
≥ 6.70 | COc1cc(C#N)ccc1-c1cnccc1C(=O)Nc1nnc(OCc2ccc(Cl)cc2)s1 [Example 127, N-(5-((4-chlorobenzyl)oxy)-1,3,4-thiadiazol-2-yl)-3-(4-cyano-2-methoxyphenyl)isonicotinamide]
6.00 to 6.30 | COc1cccc(OC)c1-c1ccncc1C(=O)Nc1nnc(OCc2ccc(Cl)cc2)s1 [Example 128, N-(5-((4-chlorobenzyl)oxy)-1,3,4-thiadiazol-2-yl)-4-(2,6-dimethoxyphenyl)nicotinamide]
6.30 to 6.70 | COc1ncccc1-c1ccncc1C(=O)Nc1nnc(OCc2ccc(Cl)cc2)s1 [Example 129, N-(5-((4-chlorobenzyl)oxy)-1,3,4-thiadiazol-2-yl)-2-methoxy-[3,4′-bipyridine]-3′-carboxamide]
≥ 6.70 | O=C(Nc1nnc(OCc2ccc(Cl)cc2)s1)c1cnccc1-c1ccccc1OC(F)(F)F [Example 130, N-(5-((4-chlorobenzyl)oxy)-1,3,4-thiadiazol-2-yl)-4-(2-(trifluoromethoxy)phenyl)nicotinamide]
≥ 6.70 | COc1cnccc1-c1cnccc1C(=O)Nc1nnc(OCc2ccc(Cl)cc2)s1 [Example 131, N-(5-((4-chlorobenzyl)oxy)-1,3,4-thiadiazol-2-yl)-3′-methoxy-[3,4′-bipyridine]-4-carboxamide]

Reference: patent publication US12509454B2, “Thiadiazolyl derivatives” (IDEAYA Biosciences, Inc., priority 2019, dated 2025)
